“Also recorded” adds a separate entry of the source.
Experiments:
TLR3 = target: T1, TLR3 (Mus musculus, UniProt Q99MB1); experiment: In vitro TLR3 inhibition assay: Poly IC-induced NO production in RAW 264.7 cells; format: cell-based
T1 construct: endogenous in cells; host or cells: RAW 264.7
T1 sequence (Q99MB1 26-905): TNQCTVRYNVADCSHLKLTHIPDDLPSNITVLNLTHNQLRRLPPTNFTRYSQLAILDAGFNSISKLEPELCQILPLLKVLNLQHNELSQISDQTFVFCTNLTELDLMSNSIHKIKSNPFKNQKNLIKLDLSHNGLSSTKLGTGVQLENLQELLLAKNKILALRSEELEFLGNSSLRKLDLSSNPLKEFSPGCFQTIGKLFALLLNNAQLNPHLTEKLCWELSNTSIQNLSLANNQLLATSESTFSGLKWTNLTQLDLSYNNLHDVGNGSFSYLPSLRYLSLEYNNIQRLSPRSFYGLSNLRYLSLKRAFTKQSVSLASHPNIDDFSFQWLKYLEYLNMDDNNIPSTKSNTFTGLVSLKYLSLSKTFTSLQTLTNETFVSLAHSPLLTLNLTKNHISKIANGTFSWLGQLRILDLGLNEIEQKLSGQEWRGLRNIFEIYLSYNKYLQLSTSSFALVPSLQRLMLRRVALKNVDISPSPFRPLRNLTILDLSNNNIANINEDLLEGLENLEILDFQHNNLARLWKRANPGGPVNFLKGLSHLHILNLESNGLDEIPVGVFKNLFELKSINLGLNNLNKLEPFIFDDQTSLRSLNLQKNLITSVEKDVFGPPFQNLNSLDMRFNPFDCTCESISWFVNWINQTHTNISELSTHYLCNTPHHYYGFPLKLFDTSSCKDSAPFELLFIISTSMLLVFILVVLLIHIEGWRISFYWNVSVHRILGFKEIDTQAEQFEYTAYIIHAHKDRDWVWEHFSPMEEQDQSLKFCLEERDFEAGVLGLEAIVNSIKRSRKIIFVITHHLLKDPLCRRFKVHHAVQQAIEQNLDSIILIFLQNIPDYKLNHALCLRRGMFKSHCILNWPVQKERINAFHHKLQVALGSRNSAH
From the text: The initial hits (Figure A) were first evaluated using the present inventors' previously established high-throughput cell assay of TLR3 activation. See, for example, ACS Med. Chem. Lett. 2010, 1, 194 and Bioorg. Med. Chem. Lett., 2010, 20, 5411. Poly IC (Polyriboinosinic:polyribocytidylic acid) has been reported to selectively activate TLR3 signaling, resulting in the activation of nitric oxide synthase and the production nitric oxide (NO) in RAW 264.7 macrophage cells. The NO level was monitored as an indicator of Poly IC-induced TLR3 activation to evaluate the drug's inhibitory activity.
RAW 264.7 (Mouse leukaemic monocyte macrophage cell line) cells were grown in RPMI 1640 medium, supplemented with 10% FBS, penicillin (100 U/mL) and streptomycin ([…]). RAW cells were then planted in 96-well plates at 100,000 cells per well and grown for 24 h in the media descried previously at 37° C. in a 5% CO2 humidified incubator. After 24 h, non-adherent cells and media were removed and replaced with fresh RPMI 1640 medium (only RPMI). The adherent macrophages were treated with high molecular weight polyinosine-polycytidylic acid (Poly IC) (10 μg/mL) (Invivogen), an agonist of TLR3, and then added different concentrates of potential inhibitor. Two rows were only treated with Poly IC as an control. Plates were then incubated for an additional 24 h. Following incubation 100 μL of media was removed and added to flat black 96-well microfluor plates (Thermo Scientific, MA, USA). To each well, 10 μL of 2,3-diaminonaphthalene (0.05 mg/mL in 0.62 M aqueous HCl solution) was added and incubated for 15 min in the dark. The reaction was quenched by addition of 5 μL of a 3 M aqueous NaOH solution and the plate was read on Beckman Coulter DTX880 reader (Beckman Coulter, Calif., USA) with excitation at 365 nm and emission at 450 nm. The nitrite (a stable metabolite of nitric oxide) concentration was determined from a nitrite standard curve. The inhibition rate (%) of NO release was determined using the following formula: Inhibition (%)=[Poly IC(OD450)−Compounds (OD450)]/[Poly IC(OD450)−Control (OD450)]×100. The IC50 values for both inhibition and cytotoxicity were determined graphically using software Origin v7.5.

TLR2/1 = target: T2, TLR2/1 (Mus musculus, UniProt Q9EPQ1+Q9QUN7); experiment: RAW264.7 cell nitric oxide TLR selectivity assay (Pam3CSK4); format: cell-based; conditions: 27 μM
T2 construct: endogenous in cells; host or cells: RAW 264.7

[1] = test system: TNF-α and IL-1β production; experiment: Cytokine-specific ELISA in RAW 264.7 cells; format: cell-based, Mouse; conditions: 27 μM compound
Procedure: A secondary cell assay was used to confirm that compound 4a inhibits the downstream signaling transduction mediated by the formation of the TLR3/dsRNA complex. In addition to TLR3 signaling suppression, the release of the proinflammatory cytokines, TNF-α and IL-1β, were also studied.
RAW cells were planted in 6-well plates at 1,000,000 cells per well with 3 mL of medium (RPMI 1640 medium, supplemented with 10% FBS, penicillin (100 U/mL) and streptomycin ([…])) and grown for 24 h at 37° C. in a 5% CO2 humidified incubator. After 24 h, non-adherent cells and media were removed and replaced with fresh RPMI 1640 medium (3 mL/well). […] In additionally wells, one well was treated with only 4a (27 μM) and the other was treated with nothing. Plates were then incubated for an additional 24 h. […] Approximately 400 μL of supernatant were collected into new tubes, frozen at −80° C. until ready for cytokine measurement. The production of the cytokine interleukin-1β (IL-1β) and TNF-α was quantified with enzyme-linked immunosorbent assays (ELISA) using cytokine-specific capture antibodies, biotinylated monoclonal detection antibodies, and recombinant human cytokine standards according to commercially available ELISA kits from R&D Systems. The cytokine level in each sample was determined in duplicate.

RANTES = experiment: In vivo poly IC-induced RANTES production; set-up: species or system mice

T2 sequence (Q9QUN7 25-784): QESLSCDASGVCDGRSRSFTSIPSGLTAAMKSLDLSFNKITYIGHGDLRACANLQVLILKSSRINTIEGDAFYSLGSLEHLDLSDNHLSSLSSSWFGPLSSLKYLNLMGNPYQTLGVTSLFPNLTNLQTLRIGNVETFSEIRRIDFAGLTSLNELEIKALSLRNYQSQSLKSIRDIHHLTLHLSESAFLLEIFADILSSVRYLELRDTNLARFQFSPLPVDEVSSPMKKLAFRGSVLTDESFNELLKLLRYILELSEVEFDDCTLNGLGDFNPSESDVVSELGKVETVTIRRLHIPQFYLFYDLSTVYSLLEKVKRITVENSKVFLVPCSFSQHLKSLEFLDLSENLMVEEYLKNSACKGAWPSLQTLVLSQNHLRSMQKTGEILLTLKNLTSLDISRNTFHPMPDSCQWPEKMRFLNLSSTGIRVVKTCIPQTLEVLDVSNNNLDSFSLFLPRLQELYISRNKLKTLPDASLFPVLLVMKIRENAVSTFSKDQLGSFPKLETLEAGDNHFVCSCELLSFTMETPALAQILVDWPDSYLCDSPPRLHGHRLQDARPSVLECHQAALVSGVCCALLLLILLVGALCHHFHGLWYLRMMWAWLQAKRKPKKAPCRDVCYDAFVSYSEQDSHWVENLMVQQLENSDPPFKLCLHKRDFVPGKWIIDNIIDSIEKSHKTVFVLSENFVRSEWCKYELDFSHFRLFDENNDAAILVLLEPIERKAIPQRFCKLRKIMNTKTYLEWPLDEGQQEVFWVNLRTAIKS
T2 sequence (Q9EPQ1 25-795 limits assumed): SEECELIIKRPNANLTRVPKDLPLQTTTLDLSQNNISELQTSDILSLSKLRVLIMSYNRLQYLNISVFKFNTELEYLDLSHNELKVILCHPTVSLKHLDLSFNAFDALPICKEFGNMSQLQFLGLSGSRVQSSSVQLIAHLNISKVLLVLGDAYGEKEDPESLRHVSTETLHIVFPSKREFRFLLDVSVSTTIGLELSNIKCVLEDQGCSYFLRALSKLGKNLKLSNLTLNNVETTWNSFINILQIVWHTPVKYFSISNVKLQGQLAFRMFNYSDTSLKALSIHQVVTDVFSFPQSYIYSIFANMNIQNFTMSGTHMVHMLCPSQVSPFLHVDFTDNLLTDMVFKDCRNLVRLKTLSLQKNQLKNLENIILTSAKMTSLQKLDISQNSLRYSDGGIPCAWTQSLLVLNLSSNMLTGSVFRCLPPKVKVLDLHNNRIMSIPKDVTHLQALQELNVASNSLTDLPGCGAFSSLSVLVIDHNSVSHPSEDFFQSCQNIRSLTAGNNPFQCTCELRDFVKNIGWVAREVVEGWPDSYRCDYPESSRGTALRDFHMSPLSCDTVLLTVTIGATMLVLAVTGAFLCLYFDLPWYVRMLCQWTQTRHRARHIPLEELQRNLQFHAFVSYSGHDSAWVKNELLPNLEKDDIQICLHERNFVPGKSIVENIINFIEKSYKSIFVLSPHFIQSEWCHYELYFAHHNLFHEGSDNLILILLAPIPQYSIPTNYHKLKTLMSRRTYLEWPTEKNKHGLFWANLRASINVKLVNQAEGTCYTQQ

- TLR3 signaling in specificity test (TLR3; 27 μM, Poly IC): selectively inhibited TLR3 signaling
- increase in potency compared to T5626448 (TLR3; 4a vs T5626448): ~45 fold
- IC50 (TLR3; Poly IC-induced TLR3 activation, cell assay): 3.44 ± 0.41 µM
SMILES: O=C(N[C@H](Cc1ccccc1)C(=O)O)c1sc2cc(F)ccc2c1Cl [Compound 4a, (R)-2-(3-chloro-6-fluorobenzo[b]thiophene-2-carboxamido)-3-phenylpropanoic acid]
- effect on TLR2/1 signaling (TLR2/1): without significantly affecting other TLRs
- IL-1β production [1]: inhibits
- TNF-α production [1]: inhibits
- RANTES production with increased pre-treatment doses (RANTES; pretreatment before poly IC i.v.): decrease of RANTES in a dose-dependent manner; also recorded: decreasing RANTES production
- RANTES production with increasing poly IC doses (RANTES; pretreatment with 27 μg): significant decrease in RANTES production; also recorded: decreased RANTES production
